Measurements as given in publication PMC9374667 (Communications Biology, 2022).
Several values for one entry are separate records, joined by “and”; a condition that tells them apart may be missing. Identical values can stand only once.

Key:
[1] = In vitro dissolution studies: dynamic solubility in buffers and simulated biological fluids; type: physicochemical; parameters: BBR dissolved in CMC-Na (Figure S7a) / Ibu dissolved in CMC-Na (Figure S7b): unit not given here; conditions: mean; for solubility at 0.5 h / solubility at 1 h / solubility at 2 h / solubility at 24 h: 37 °C
Description: Solubilities were determined by adding excess sample to 30 mL different mediums, such as HCl solution, acetate buffer, phosphate buffer, SGF, FaSSIF and FeSSIF. The configuration of various buffer solutions is shown in Supplementary Table 2. After being shaken at 400 rpm at 37 °C for 0.5, 1, 2, and 24 h, 0.3 mL of suspension was sampled and centrifuged at 14,000 rpm for 8 min to isolate mother liquor, and then analyzed by HPLC after dilution. All samples were analyzed in triplicate.

db/db mice [2] = assay: Body weight of db/db mice during 35-day treatment; type: in vivo; conditions: db/db mice
Description: (§1) The lean wild type control and the db/db control mice were given equal vehicle volume (0.5% CMC-Na solution). All mice were monitored for food intake, body weight, and fasting blood glucose during the 35-day trial. Glucose tolerance test (GTT) and insulin resistance test (ITT) were performed at 4 and 5 weeks of treatment, respectively. Metabolic analysis was performed at 5 weeks of treatment. At the end of the study, blood samples were taken through the retroorbital venous sinus of mice, fat depots (brown fat, inguinal subcutaneous fat, epididymal fat, perirenal fat and mesenteric fat depot) were dissected, weighed, and immediately frozen in liquid nitrogen and stored at −80 °C until required. Weight of fat depots are expressed in percentage (fat depots weight /bodyweight * 100%).

db/db mice [3] = assay: Serum CHO, TG, FFA, LDL-C, HDL-C and ADPN in the fasted state; type: in vivo; parameters: FFA (Figure 4g) / LDL-C (Figure 4h) / HDL-C (Figure 4i) / ADPN (Figure 4j): unit not given here; conditions: db/db mice
Description: The serum was collected by centrifugation at 3000 × g at 4 °C for 15 min and stored at −80 °C until analysis. TG, TC, LDL-C, HDL-C, and FFA were routinely tested on a Chemray 240 automatic biochemical analyzer (Chemray 240, Shenzhen, China). Serum levels of mouse adiponectin, interleukin6 (IL-6), tumor necrosis factor-α (TNF-α) were measured using commercial enzyme-linked immunosorbent assay (ELISA) kits (Nanjing Jiancheng Bioengineering Institute, Nanjing, China) and according to the manufacturer’s instructions. The levels of IL-6, TNF-α in 3T3-L1 adipocyte culture supernatant were also detected by ELISA.

db/db mice [4] = assay: Weekly fasting glucose levels of db/db mice; type: in vivo; conditions: for Weekly fasting glucose levels of db/db mice (Figure 5a): BBR 150mg/kg, individual mice 1-10, in mmol/L
Description: as §1

p-TBK1, p-AMPKα, UCP1 = assay: Western blotting of TNF-α induced 3T3-L1 adipocytes; type: cell-based, Murine; parameters: p-TBK1 / p-AMPKα (western blotting, Figure 7j) / UCP1 (western blotting, Figure 7k): unit not given here
Description: The adipose tissue or 3T3-L1 adipocytes were homogenized by ultrasound in an ice‐cold RIPA lysis buffer containing 1% PMSF and centrifuged at 12,000 × g at 4°C for 15 min to collect the supernatant. The BCA protein assay kit (Beyotime, Shanghai, China) was used to detect the total protein concentration. Proteins (20-30 μg) of the sample were separated by 10% SDS-PAGE gel and transferred onto polyvinylidene difluoride (PVDF) membranes. Then the PVDF membranes were blocked in 5% skim milk powder in TBS containing 1% Tween-20 (TBST) for 2 h at room temperature and washed with TBST for 3 times. The membranes were incubated with the appropriate primary antibody, IKKε (1:1000 dilution), TBK1 (1:1000 dilution), p-TBK1 Ser172 (1:1000 dilution), p-AMPKα Thr172 (1:1000 dilution), UCP1 (1:1000 dilution), and GAPDH (1:1000 dilution) in the blocking buffer solution at 4 °C overnight. After washing, the membranes were incubated with horseradish peroxidase-conjugated secondary antibodies (in 5% skim milk powder) for 1 h at room temperature. Finally, the membranes were treated with enhanced chemiluminescence agents (Tanon, Shanghai, China) and the signals were monitored using the Tanon 5200 multi chemiluminescent imaging system (Tanon, Shanghai, China).

[5] = FaSSIF-V1 (fasted state simulated intestinal fluid), thermodynamic from solid, FaSSIF-V1 (pH 6.5)
[6] = FaSSIF-V1 (fasted state simulated intestinal fluid), FaSSIF-V1 (pH 6.5)
[7] = FeSSIF-V1 (fed state simulated intestinal fluid), thermodynamic from solid, FeSSIF-V1 (pH 5.0)
[8] = SGF (simulated gastric fluid), simulated gastric fluid, thermodynamic from solid, SGF (pH 2.0)
[9] = simulated gastric fluid, thermodynamic from solid, HCl solution (pH 1.0)
[10] = BBR 150mg/kg, serum, individual mice 1-6
[11] = 150 mg/kg, fasted state, individual mice
[12] = vs vehicle, BJ 75 and 150 mg/kg, BBR 150 mg/kg, Ibu 150 mg/kg
[13] = Tnfa + 10um, 3T3-L1 adipocytes, replicates 1-3

COc1ccc2cc3[n+](cc2c1OC)CCc1cc2c(cc1-3)OCO2 [BBR, Berberine chloride dihydrate]
solubility at 0.5 h ([1]; Acetate buffer (pH 4.5)): 2080 µg/mL | solubility at 1 h ([1]; Acetate buffer (pH 4.5)): 2070 µg/mL | solubility at 2 h ([1]; Acetate buffer (pH 4.5)): 1540 µg/mL | solubility at 24 h ([1]; Acetate buffer (pH 4.5)): 1540 µg/mL | BBR dissolved in CMC-Na (Figure S7a) ([1]; time 0.5): 1.991 | BBR dissolved in CMC-Na (Figure S7a) ([1]; time 1): 2.188 | BBR dissolved in CMC-Na (Figure S7a) ([1]; time 2): 2.102 | BBR dissolved in CMC-Na (Figure S7a) ([1]; time 24): 2.4551 | solubility at 0.5 h [1, 5]: 151 µg/mL | solubility at 24 h [1, 5]: 64.1 µg/mL | solubility at 1 h [1, 6]: 126 µg/mL | solubility at 2 h [1, 6]: 87.2 µg/mL | solubility at 0.5 h [1, 7]: 137 µg/mL | solubility at 2 h [1, 7]: 73.3 µg/mL | solubility at 24 h [1, 7]: 63.1 µg/mL | solubility at 1 h ([1]; FeSSIF-V1 (fed state simulated intestinal fluid), FeSSIF-V1 (pH 5.0)): 107 µg/mL | solubility at 2 h ([1]; HCl solution (pH 1.0)): 106 µg/mL | solubility at 24 h ([1]; HCl solution (pH 1.0)): 81.1 µg/mL | solubility at 0.5 h ([1]; Phosphate buffer (pH 6.8)): 2290 µg/mL | solubility at 1 h ([1]; Phosphate buffer (pH 6.8)): 2380 µg/mL | solubility at 2 h ([1]; Phosphate buffer (pH 6.8)): 1790 µg/mL | solubility at 24 h ([1]; Phosphate buffer (pH 6.8)): 1950 µg/mL | solubility at 0.5 h [1, 8]: 172 µg/mL | solubility at 1 h [1, 8]: 175 µg/mL | solubility at 2 h [1, 8]: 140 µg/mL | solubility at 24 h ([1]; SGF (simulated gastric fluid), SGF (pH 2.0)): 110 µg/mL | solubility at 0.5 h [1, 9]: 137 µg/mL | solubility at 1 h [1, 9]: 146 µg/mL | Body weight (db/db mice [2]; 150 mg/kg gavage once per day, day 1, individual mice, 150 mg/kg): 41 grams and 40 grams and 42 grams and 36 grams and 39 grams and 37 grams | Body weight (db/db mice [2]; 150 mg/kg gavage once per day, day 4, individual mice, 150 mg/kg): 40 grams and 41 grams and 37 grams and 39 grams | Body weight (db/db mice [2]; 150 mg/kg gavage once per day, day 7, individual mice, 150 mg/kg): 42 grams and 43 grams and 37 grams and 38 grams and 39 grams and 41 grams | Body weight (db/db mice [2]; 150 mg/kg gavage once per day, day 10, individual mice, 150 mg/kg): 42 grams and 43 grams and 44 grams and 38 grams and 39 grams and 40 grams | Body weight (db/db mice [2]; 150 mg/kg gavage once per day, day 13, individual mice, 150 mg/kg): 43 grams and 44 grams and 38 grams and 39 grams and 41 grams | Body weight (db/db mice [2]; 150 mg/kg gavage once per day, day 16, individual mice, 150 mg/kg): 45 grams and 43 grams and 44 grams and 38 grams and 39 grams and 42 grams and 41 grams | Body weight (db/db mice [2]; 150 mg/kg gavage once per day, day 19, individual mice, 150 mg/kg): 44 grams and 43 grams and 37 grams and 40 grams and 42 grams | Body weight (db/db mice [2]; 150 mg/kg gavage once per day, day 22, individual mice, 150 mg/kg): 42 grams and 45 grams and 41 grams and 39 grams and 43 grams and 44 grams | Body weight (db/db mice [2]; 150 mg/kg gavage once per day, day 25, individual mice, 150 mg/kg): 42 grams and 46 grams and 43 grams and 38 grams and 39 grams and 44 grams and 40 grams and 45 grams | Body weight (db/db mice [2]; 150 mg/kg gavage once per day, day 28, individual mice, 150 mg/kg): 44 grams and 47 grams and 43 grams and 39 grams and 45 grams and 46 grams | Body weight (db/db mice [2]; 150 mg/kg gavage once per day, day 31, individual mice, 150 mg/kg): 46 grams and 48 grams and 49 grams and 41 grams and 42 grams and 47 grams and 43 grams and 45 grams | Body weight (db/db mice [2]; 150 mg/kg gavage once per day, day 34, individual mice, 150 mg/kg): 48 grams and 46 grams and 50 grams and 51 grams and 43 grams and 47 grams and 45 grams | Average body weight gain (db/db mice [2]; 150 mg/kg gavage once per day, day 35, mean ± SD): 7.6 ± 0.8 g | Body weight gain in 5 weeks (db/db mice [2]; 150 mg/kg gavage once per day, individual mice, 150 mg/kg): 8 grams and 7 grams and 6 grams and 9 grams | Body weight compared with vehicle (db/db mice [2]; 5 weeks, BJ 75 and 150 mg/kg, BBR 150 mg/kg, Ibu 150 mg/kg): lower body weight than the db/db mice treated with the vehicle | ADPN (Figure 4j) (db/db mice [3]; [10]): 531.25 and 533.16 and 569.22 and 520.27 and 517.83 and 573.58 | FFA (Figure 4g) (db/db mice [3]; [10]): 783.9 and 765.7 and 789.7 and 738.2 and 717.7 and 741.1 | HDL-C (Figure 4i) (db/db mice [3]; [10]): 2.5 and 2.8 and 2.4 and 2.7 and 3 | LDL-C (Figure 4h) (db/db mice [3]; [10]): 4.79 and 4.96 and 3.72 and 5.17 and 5.15 | Serum CHO (db/db mice [3]; [11]): 4 mmol/L and 4.5 mmol/L and 5.2 mmol/L and 4.6 mmol/L and 4.2 mmol/L | Serum TG (db/db mice [3]; [11]): 1.66 mmol/L and 1.22 mmol/L and 1.5 mmol/L and 1 mmol/L and 0.96 mmol/L and 1.18 mmol/L | Serum levels of CHO, TG, FFA and LDL-C (db/db mice [3]; [12]): decreased | Serum levels of HDL-C and adiponectin (ADPN) (db/db mice [3]; [12]): increased | Weekly fasting glucose levels of db/db mice (Figure 5a) (db/db mice [4]; 1st of 6 weekly columns (time not given)): 17.4 and 11.5 and 21.8 and 12.0 and 11.7 and 15.7 and 14.9 and 17.1 | Weekly fasting glucose levels of db/db mice (Figure 5a) (db/db mice [4]; 2nd of 6 weekly columns (time not given)): 26.2 and 16.0 and 21.2 and 18.4 and 15.0 and 21.3 and 21.6 and 19.3 and 16.9 | Weekly fasting glucose levels of db/db mice (Figure 5a) (db/db mice [4]; 3rd of 6 weekly columns (time not given)): 23.6 and 18.7 and 19.5 and 20.6 and 21.5 and 23.7 and 13.1 and 20.7 and 20.5 | Weekly fasting glucose levels of db/db mice (Figure 5a) (db/db mice [4]; 4th of 6 weekly (time not given)): 19.5 and 14.4 and 15.7 and 19.0 and 17.0 and 19.2 and 9.3 and 10.1 and 18.3 and 13.0 | Weekly fasting glucose levels of db/db mice (Figure 5a) (db/db mice [4]; 5th of 6 weekly (time not given)): 18.5 and 10.1 and 10.6 and 12.8 and 13.2 and 9.4 and 10.5 and 8.4 and 10.7 and 13.3 | Weekly fasting glucose levels of db/db mice (Figure 5a) (db/db mice [4]; 6th of 6 weekly (time not given)): 15.5 and 9.3 and 11.4 and 15.8 and 10.5 and 10.2 and 10.0 and 9.8 and 13.5 | Fasting blood glucose level at the end of the treatment (db/db mice [4]; db/db mice, 150 mg/kg, vehicle rose from 14.4 ± 3.4 to 23.9 ± 3.4): 11.6 ± 2.4 mmol/L | Blood (serum) glucose levels compared with vehicle (db/db mice [4]; db/db mice, BJ 75 and 150 mg/kg, BBR 150 mg/kg, Ibu 150 mg/kg): slowed the increase in glucose levels | p-TBK1 (p-TBK1, p-AMPKα, UCP1; Figure 7i, Tnfa + 10um BBR, replicates): 0.5119 and 0.483 and 0.454 | UCP1 (western blotting, Figure 7k) (p-TBK1, p-AMPKα, UCP1; [13]): 0.8587 and 1.148 and 0.9274 | p-AMPKα (western blotting, Figure 7j) (p-TBK1, p-AMPKα, UCP1; [13]): 0.5058 and 0.5536 and 0.7822
